Here are results for one compound from patent EP0403251A2, “Monokine activity interference” (SMITHKLINE BEECHAM CORPORATION, priority 1989, dated 1990).

“Also recorded” adds a separate entry of the source.

Assay [1] deals with TNF. Nature of the assay: Endotoxin shock in P. acnes-sensitized mice (P. acnes/LPS model), TNF levels by ELISA. It counts as in vivo. Particulars: P acnes/LPS treated mice, increased oral dosage, Figure 1. As for the experimental part:
(§1) This model is a modification of the previously described protocol for the in vivo induction of TNF as described in Haranaka et al., Cancer Immunol Immunother, 18:87-90, (1984). Treatment with Proprionibacterium Acnes (P. acnes) (1mg/animal i.p.) renders mice susceptible to the lethal effects of LPS injected 10 days later.
(§2) P. acnes was purchased from Burroughs Wellcome (Triangle Park, North Carolina, USA), and […]of the heat-killed bacteria was administered in 0.5 ml pyrogen-free saline by intraperitoneal (i.p.) injection to male C57BL/6 mice, obtained from Charles River Laboratories (Stone Ridge, New York, USA) of 6-12 weeks of age. Ten days later, the mice were injected iv. with 1 mg LPS in 0.25 ml saline. Compounds to be tested were administered at various times prior to or following the injection of LPS. The survival of animals was monitored for 1 week.
Plasma levels of TNF were measured using a modification of the basic sandwich ELISA method described in Winston et al., Current Protocols in Molecular Biology, Pg. 11.2.1, Ausubel et al., Ed. (1987) John Wiley and Sons, New York, USA. […] TNF levels in rat samples were calculated from a standard curve genereated with recombinant murine TNF (Genzyme, Boston, MA, USA). TNF levels determined by ELISA correlated with levels detected by the L929 bioassay of Ruff et. al., J. Immunol. […] The ELISA detected levels of TNF down to 25 pg/ml.

Assay [2] deals with TNF. Nature of the assay: Endotoxin shock in D-gal-sensitized mice (LPS-GAL model), TNF levels by ELISA and survival. It counts as in vivo. As for the experimental part: The protocol used to test the compound of the method of the subject invention was essentially as has been described in Galanos et al., Proc. Nat'l Acad. Sci USA, 76:5939-43 (1979) whose disclosure is herein incorporated by reference. Briefly, D-gal ([…]) sensitizes various strains of mice to the lethal effects of endotoxin. The administration of D-gal (300-500mg/kg) intra-venously (i.v.) sensitizes the mice to doses of Lipopolysaccharide(LPS ) as low as 0.1 mg. Briefly, male C57BL/6 mice, obtained from Charles River Laboratories (Stone Ridge, New York, USA) of 6-12 weeks of age were injected i.v. with 0.1 mg of LPS from Salmonella typhosa (Difco Laboratories, Detroit, Michigan, USA) admixed with D(+)-gal (Sigma; 500 mg/kg) in 0.20-0.25 ml pyrogen-free saline. Compounds to be tested were administered at various times prior to or following the iv. injection of LPS/D-gal. In this model, the control animals usually die 5-6 hr. following the injection of LPS, although on occasion deaths are seen between 24 and 48 hr.
Plasma levels of TNF were measured using a modification of the basic sandwich ELISA method described in Winston et al., Current Protocols in Molecular Biology, Pg. 11.2.1, Ausubel et al., Ed. (1987) John Wiley and Sons, New York, USA. The Elisa employed a hampster monoclonal anti-mouse TNF (Genzyme, Boston, MA, USA) as the capture antibody and a polyclonal rabbit anti-murine TNF (Genzyme, Boston, MA, USA) as the detecting antibody. TNF levels in rat samples were calculated from a standard curve genereated with recombinant murine TNF (Genzyme, Boston, MA, USA). TNF levels determined by ELISA correlated with levels detected by the L929 bioassay of Ruff et. al., J. Immunol. 125:1671-1677 (1980), with 1 Unit of activity in the bioassay corresponding to 70 picograms (pg) of TNF in the ELISA. The ELISA detected levels of TNF down to 25 pg/ml.

The test system of assay [3] is TNF. As to the kind of experiment: In vivo endotoxin shock models (P. acnes model and/or LPS-GAL model, not specified which). The arrangement: species or system mice. Particulars: one or both of the in vivo assays (P. acnes / LPS-GAL). As for the experimental part:
Two models of endotoxin shock have been utilized to determine in vivo TNF activity and are described below. The actual protocoll used in the models is described in Utility Model Examples A and B set out below, i.e. P. Acnes model and LPS-GAL model.
Briefly, D-gal ([…]) sensitizes various strains of mice to the lethal effects of endotoxin. The administration of D-gal (300-500mg/kg) intra-venously (i.v.) sensitizes the mice to doses of Lipopolysaccharide(LPS ) as low as 0.1 mg. Briefly, male C57BL/6 mice, obtained from Charles River Laboratories (Stone Ridge, New York, USA) of 6-12 weeks of age were injected i.v. with 0.1 mg of LPS from Salmonella typhosa (Difco Laboratories, Detroit, Michigan, USA) admixed with D(+)-gal (Sigma; 500 mg/kg) in 0.20-0.25 ml pyrogen-free saline. Compounds to be tested were administered at various times prior to or following the iv. injection of LPS/D-gal.
as §1, §2
Plasma levels of TNF were measured using a modification of the basic sandwich ELISA method described in Winston et al., Current Protocols in Molecular Biology, Pg. 11.2.1, Ausubel et al., Ed. (1987) John Wiley and Sons, New York, USA. The Elisa employed a hampster monoclonal anti-mouse TNF (Genzyme, Boston, MA, USA) as the capture antibody and a polyclonal rabbit anti-murine TNF (Genzyme, Boston, MA, USA) as the detecting antibody. TNF levels in rat samples were calculated from a standard curve genereated with recombinant murine TNF (Genzyme, Boston, MA, USA).

As for `C[S+]([O-])c1ccc(-c2nc3n(c2-c2ccncc2)CCC3)cc1` (stereo not shown) [Compound 2, 2-(4-Methylsulfoxyphenyl)3-(4-pyridyl)-6,7-dihydro[5H]-pyrrolo-[1,2-a]imidazole], the “serum TNF levels” value with TNF [1] is listed as “reduction in serum TNF levels”. In the assay with TNF [2] (LPS-GAL Model, 100 mg/kg, Figure 4), the “reduction of serum TNF levels” value is listed as “reduction of serum TNF levels”. For the same compound, in the assay with TNF [2] (LPS-GAL model, animals with endotoxic shock, Figure 5, control group 30%), the survival rate amounted to 100%. In the assay with TNF [3], the “in vivo TNF levels” value is “in vivo activity; also recorded: reduce the in vivo level of tumor necrosis factor (TNF)”.
